Data taken from US11859229B2, “Polyvinyl alcohol-degrading enzyme and process for producing the same” (Hayashibara Co., Ltd., priority 2017, dated 2024).

Experiments:
Type in all cases: biochemical, Pseudomonas sp. VT1B strain (NBRC110478)
PVA-A [1] = assay: Substrate specificity of PVA-oxidizing activity of PVA-A; conditions: substrate 1% (v/v) or saturated; activity against PVA = 100%
Protocol: (§1) To 0.5 mL of a substrate solution prepared by dissolving PVA (Reagent grade polyvinyl alcohol, polymerization degree: 2,000, Nacalai Tesque Inc., Kyoto, Japan) into 100 mM sodium phosphate buffer (pH 7.0) to give a concentration of 2% (w/v), 15 µL of 2% (w/v) of sodium azide solution was added, and then 0.5 mL of an enzyme solution is further added and reacted with shaking at 27° C. for 60 min. After the 60 min-reaction, the reaction was stopped by mixing 0.32 mL of the reaction mixture to 0.8 mL of a titanium reagent, and the yellow color, produced by reacting hydrogen peroxide formed by the enzyme reaction and the titanium reagent, was measured by measuring the absorbance at 410 nm (A410) as an index. Separately, the enzyme solution was added to the substrate solution, and the resulting mixture is immediately mixed with the titanium reagent. The resulting mixture was similarly measured its color and the value was used as the value at the reaction zero minutes. Then, the amount of the formed hydrogen peroxide is determined and the PVA-oxidizing activity is calculated based on the following formula. It is known that the absorbance at 410 nm (A410) increases by “1” when 3.65 […]mole/mL of hydrogen peroxide is formed. Therefore, in the following Formula 1, the coefficient of “3.65” has been multiplied. One unit of the PVA-oxidizing activity is defined as the amount of enzyme that forms 1 […]mole of hydrogen peroxide per min under the above conditions. Titanium reagent is prepared by diluting 5% titanium sulfate (IV) solution, commercialized by Nacalai Tesque Inc., Kyoto, Japan, 25-fold with 10% (w/w) sulfuric acid.
(§2) The substrate specificity of PVA-oxidizing activity was investigated by allowing PVA-A and PVA-B, the purified enzyme preparations obtained by the method in Experiment 2, to act on various secondary alcohols, primary alcohols and the like as substrates. In other words, the PVA-oxidizing activity of the enzymes was measured for primary alcohols having different chain length (methanol, ethanol, propanol, butanol, pentanol, hexanol, heptanol, and decanol), secondary alcohols (2-propanol, 2-pentanol, 2-hexanol, 4-heptanol, 2-octanol, 4-decanol, and 2, 4-pentanediol), and a tertiary alcohol (tert-butanol).

PVA-B [2] = assay: Substrate specificity of PVA-oxidizing activity of PVA-B; conditions: substrate 1% (v/v) or saturated; activity against PVA = 100%
Protocol: as §1, §2

PVA-A [3] = assay: Effects of various metal salts on PVA-oxidizing activity of PVA-A
Protocol: as §1
(§3) Using the purified enzyme preparations of PVA-A and PVA-B, obtained by the method of Experiment 2, effects of various metal salts on the enzyme activity were investigated according to the assay of the PVA-oxidizing activity as an index in the presence of 1 mM metal salts.

PVA-B [4] = assay: Effects of various metal salts on PVA-oxidizing activity of PVA-B
Protocol: as §1, §3

PVA-A and PVA-B = assay: Effects of metal salts on PVA-oxidizing activity, summary for both enzymes; conditions: 1 mM, in words
Protocol: as §3

[5] = PVA-oxidizing activity in the presence of 1 mM metal salts, None = 100

| Compound | Relative activity (%) PVA-A (PVA-A [1]) [%] | Relative activity (%) PVA-B (PVA-B [2]) [%] | Relative activity (%) PVA-A (PVA-A [3]; [5]) [%] | Relative activity (%) PVA-B (PVA-B [4]; [5]) [%] | also measured |
| --- | --- | --- | --- | --- | --- |
| CC(O)CC(C)O (stereo not shown) [2,4-Pentanediol] | 0 | 0 |  |  |  |
| CCCCC(C)O (stereo not shown) [2-Hexanol] | 5 | 8 |  |  |  |
| CCCCCCC(C)O (stereo not shown) [2-Octanol] | 3 | 6 |  |  |  |
| CCCC(C)O (stereo not shown) [2-Pentanol] | 2 | 5 |  |  |  |
| CC(C)O [2-Propanol] | 0 | 1 |  |  |  |
| CCCCCCC(O)CCC (stereo not shown) [4-Decanol] | 3 | 1 |  |  |  |
| CCCC(O)CCC [4-Heptanol] | 21 | 12 |  |  |  |
| [Cl][Al]([Cl])[Cl] [AlCl3] |  |  | 91 | 63 |  |
| [Ca+2].[Cl-].[Cl-] [CaCl2] |  |  | 98 | 98 |  |
| CCCCCCCCCCO [Decanol] | 0 | 0 |  |  |  |
| O=C(O)CN(CCN(CC(=O)O)CC(=O)O)CC(=O)O [EDTA] |  |  | 56 | 45 | Effect on PVA-oxidizing activity (PVA-A and PVA-B): also inhibited |
| CCO [Ethanol] | 0 | 0 |  |  |  |
| [Cl][Fe]([Cl])[Cl] [FeCl3] |  |  | 29 | 19 | Effect on PVA-oxidizing activity (PVA-A and PVA-B): remarkably inhibited |
| CCCCCCCO [Heptanol] | 0 | 1 |  |  |  |
| CCCCCCO [Hexanol] | 0 | 1 |  |  |  |
| [Cl][Hg][Cl] [HgCl2] |  |  | 22 | 4 | Effect on PVA-oxidizing activity (PVA-A and PVA-B): remarkably inhibited |
| [Cl-].[K+] [KCl] |  |  | 93 | 116 |  |
| CO [Methanol] | 0 | 0 |  |  |  |
| [Cl-].[Cl-].[Mg+2] [MgCl2] |  |  | 98 | 104 |  |
| [Cl][Mn][Cl] [MnCl2] |  |  | 96 | 87 |  |
| [Cl-].[Na+] [NaCl] |  |  |  |  | Relative activity (%) PVA-A (PVA-A [3]): 94%; Relative activity (%) PVA-B (PVA-B [4]): 106% |
| [Cl][Ni][Cl] [NiCl2] |  |  | 91 | 76 |  |
| CCCCCO [Pentanol] | 0 | 0 |  |  |  |
| CCCO [Propanol] | 0 | 0 |  |  |  |
| [Cl][Sn][Cl] [SnCl2] |  |  | 78 | 102 |  |
| [Cl-].[Cl-].[Sr+2] [SrCl2] |  |  | 99 | 101 |  |
| CC(C)(C)O [tert-Butanol] | 0 | 1 |  |  |  |
| Butanol | 0 | 0 |  |  |  |
| RbCl2 |  |  | 91 | 99 |  |
